Measured values reported in patent US11492359B2, “Near-infrared nerve-sparing fluorophores” (OREGON HEALTH & SCIENCE UNIVERSITY, priority 2018, dated 2022).

Tests used:
[1] = UV-Vis absorption and fluorescence spectroscopy of the Oxazine library; type: physicochemical; details: for Extinction coefficient: Beer's Law plots; for Quantum yield: relative, references Oxazine 1, Oxazine 170, Rhodamine 101
Summary of the method: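 Absorbance measured at room temperature in 1-cm quartz cuvette, reference corrected; extinction coefficient from Beer's Law plots of absorbance vs concentration. Fluorescence spectra corrected for PMT response; relative quantum yields averaged over multiple measurements against Oxazine 1, Oxazine 170 and Rhodamine 101 references.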

[2] = system: murine brachial plexus and sciatic nerves; assay: Nerve-specificity screening using systemic administration; type: in vivo; details: for nerve specificity / nerve contrast (N/M vs control group) following systemic administration: IV, 200 nmol, 4 hours prior to imaging; for N/M and N/A ratios vs unstained control animals: systemic administration
[3] = system: murine brachial plexus and sciatic nerves; assay: Nerve-specificity screening using direct/topical administration; type: in vivo, mouse; details: for nerve specificity (N/M contrast vs control group) via direct administration: 125 μM, imaged 30 minutes after staining; for N/M and N/A ratios vs unstained control animals: direct administration
Description: All reagents were purchased from Sigma Aldrich, Fisher Scientific, TCI, or Ark Pharm. Unless otherwise indicated, all commercially available starting materials were used directly without further purification. Analytical thin layer chromatography (TLC) was performed on Millipore ready-to-use plates with silica gel 60 (F254, 32-63 μm). Flash chromatography was performed on Sorbent Technologies silica gel for column chromatography or on a Biotage Isolera Flash System using SNAP Ultra cartridges. High-resolution mass spectra (HRMS) were measured on a ThermoElectron LTQ-Orbitrap high resolution mass spectrometer with a dedicated Accela HPLC system, or an Agilent 6244 time-of-flight LCMS with diode array detector VL+. LCMS and Purity Characterization Mass-to-charge ratio and purity of the Oxazine compounds were characterized on an Agilent 6244 time-of-flight tandem liquid chromatography mass spectroscopy (LCMS) with diode array detector VL+. Sample (10 μL) was injected into a C18 column (Poroshell 120, 4.6×50 mm, 2.7 micron), and eluted with a solvent system of A (H2O, 0.1% FA) and B (MeCN, 01.% FA) at 0.4 mL/min, from A/B=90/10 to 5/95 over 10 min, maintained at A/B=5/95 for additional 5 min. Ions were detected in positive ion mode by setting the capillary voltage at 4 kV and gas temperature at 350° C. Purity was calculated through area under the curve analysis of the absorbance at 254 nm. UV-Vis Absorption and Fluorescence Spectroscopy. UV-Vis spectra were collected with a Cary 50 UV-Vis spectrophotometer at room temperature, using a 1-cm quartz cuvette. Fluorescence spectra were collected on a Cary Eclipse fluorescence spectrophotometer (Agilent Technologies). All absorbance spectra were reference corrected. Extinction coefficient was calculated from Beer's Law plots of absorbance versus concentration. Fluorescence spectra were corrected for the wavelength dependent response of the R928 photomultiplier tube using a manufacturer generated correction file. Relative quantum yields are reported as the average of multiple measurements using multiple references, including Oxazine 1, Oxazine 170, and Rhodamine 101. Physicochemical Property Calculation. Physicochemical partition coefficients (Log D) values at pH 7.4, number of hydrogen bond donors and acceptors, polar surface area, and the number of rotatable bonds were calculated using Marvin and JChem calculator plugins (ChemAxon, Budapest, Hungary). Nerve-Specificity Screening using Direct/Topical Administration Each compound was screened for its tissue-specificity using a previously published direct/topical administration strategy in murine brachial plexus and sciatic nerves.^1 Each compound from the Oxazine library was formulated in the previously utilized co-solvent formulation (10% DMSO, 5% Kolliphor, 65% serum and 20% phosphate buffered saline) at 125 μM. 100 μL of the formulated Oxazine were incubated on the exposed brachial plexus or sciatic nerve for 5 minutes. The fluorophore containing solution was removed and the area was irrigated with saline 18 times to remove any unbound fluorophore. Co-registered fluorescence and color images were collected of each stained area 30 minutes after Oxazine direct/topical administration using a custom built macroscopic imaging system with 620/60 nm excitation and 700/75 nm bandpass emission filters. Custom written MatLab code was used to analyze the tissue specific fluorescence where regions of interest were selected on the nerve, muscle and adipose tissue using the white light images. These regions of interest were then analyzed on the co-registered matched fluorescence images permitting assessment of the nerve to muscle and nerve to adipose ratios in blinded manner. […]

swine peripheral nerves = assay: Swine nerve imaging on da Vinci Si surgical system; type: in vivo; details: for nerve contrast against key surgical tissue classes (adipose, muscle, vasculature, peritoneal): laparoscopic; for SBR of buried nerve tissues: underlying peritoneal tissue and several millimeters of mixed adipose and muscle tissues, semi-quantitative
Source text: A custom-built laparoscopic imaging system also capable of real-time color and fluorescence imaging was used to acquire in vivo swine images and videos. The imaging system was integrated into the da Vinci Si surgical system (Intuitive Surgical, Sunnyvale, Calif.) and consisted of a Necsel Neon 5 W 640 nm laser (Necsel, Milpitas, Calif.) coupled to the da Vinci Si endoscope with a 642 nm StopLine single-notch blocking filter (Semrock, Rochester, N.Y.). The single-notch blocking filter was placed in the Si camera sterile adaptor between the rod lens endoscope and the Si camera head. Fluorescent signal acquisition occurred in the Si white light mode with the blocking filter removing the excitation light and the fluorescent signal detected primarily on the red, green, blue (RGB) red-Bayer elements of a modified Si endoscope camera head. Laser power at the endoscope tip measured 800 mW with the optical power loses occurring primarily at the laser fiber/light guide and the Si camera head/rod lens interfaces. Fluorescence and color videos were captured using the Si Vision side cart at an exposure time of 2 ms. Videos were recorded on a Panasonic HD-SDI recorder connected to the TilePro video out connections on the da Vinci Si Vision side cart. Video clips were edited in iMovie to crop their length and include text overlays. Screen captures of the in vivo video clips were collected and are presented as figures. Da Vinci Si imaging display algorithms apply non-linear gamma and color corrections to the collected video, and thus, while image quantification is possible to report what would be visible to surgeons intraoperatively, these values are only semi-quantitative and could vary from what is observed in a more controlled system.
Swine nerve imaging studies of Oxazine derivatives. LGW01-08 and LGW05-75 were administered via IV injection at a body surface area scaled dose from mice for swine nerve imaging studies (0.34 mg/kg) (Nair & Jacob, J Basic Clin Pharm 7, 27-31 (2016) and Sharma & McNeill, Br J Pharmacol 157, 907-921 (2009)). Nerves running along the body wall in the peritoneal cavity buried beneath 1-3 mm of fascia and adipose tissue were imaged using the previously described fluorescence enabled laparoscopic imaging system docked to the da Vinci Si Surgical System. Nerve contrast was monitored immediately following injection and up to 6 hours after systemic administration. Dissection and resection of the identified nerve structures was performed using the da Vinci system, where the resected tissues were fixed in formalin. The fixed tissues were sent to the OHSU Histopathology Shared Resource for paraffin embedding, sectioning and subsequent gold standard H&E staining.
Image analysis of intraoperative nerve contrast. Custom written MatLab code was used to analyze the tissue specific fluorescence where regions of interest (ROIs) were selected on the nerve, muscle and adipose tissue using the white light images, but blinded to the fluorescence images. These ROIs were then analyzed on the co-registered, matched fluorescence images permitting assessment of the mean tissue intensities as well as the nerve to muscle (N/M) and nerve to adipose (N/A) ratios. Fluorescence intensity measurements were divided by the exposure time to obtain normalized intensity per second measurements. Mean nerve to background tissue ratios (N/M and N/A) were calculated for each Oxazine derivative. For nerve imaging at depth image analysis, fluorescent line profiles and 3-D intensity topographical plots were generated in ImageJ using the plot profile and surface plot functions, respectively. The line profiles were background and exposure time corrected by dividing by the exposure time of each image and subtracting the average intensity of background pixels from the entire line profile. […] In addition, non-uniform tissue surfaces, variable endoscope-tissue positioning, and vignetting add further complications to resolving tissue-level SBRs.

[4] = system: mouse brachial plexus nerves; assay: Nerve imaging at depth under muscle tissue; type: in vivo
Description: Nerve imaging at depth studies using a model Oxazine derivative. Oxazine 4 and LGW01-08 were used to stain mouse brachial plexus nerves using both direct and systemic administration methods using the same dose and administration methods previously described. The ability to image the brachial plexus nerve at depth was assessed under varying thicknesses of mouse muscle tissue. Muscle tissue was resected from the peritoneal muscle layer and measured for thickness. One and two layers of resected peritoneal muscle tissue was placed over the stained nerves, providing one and two mm thick homogenous tissue through which the stained nerve tissue was imaged. The same muscle tissue was used to cover the stained nerves from both fluorophores with care taken to orient the muscle in the same way to ensure equivalent comparison. The imaging system configuration was changed to reflect the 700 nm channel in clinically relevant FGS systems (Tummers et al., Eur J Surg Oncol 40, 850-858 (2014); Troyan et al., Ann Surg Oncol 16, 2943-2952 (2009); Ashitate et al., The Journal of surgical research 176, 7-13 (2012); Verbeek et al., The Journal of urology 190, 574-579 (2013); Hillary et al., Langenbecks Arch Surg 403, 111-118 (2018); and Mery et al., Oncotarget 8, 109559-109574 (2017). For fluorescence excitation, the PhotoFluor II was filtered with a 650±22.5 nm bandpass excitation filter. The resulting fluorescence was collected with a 720±30 nm bandpass emission filter for image collection. Camera exposure times ranged from 0.025-4 s for fluorescence image collection.
Image analysis of intraoperative nerve contrast. Custom written MatLab code was used to analyze the tissue specific fluorescence where regions of interest (ROIs) were selected on the nerve, muscle and adipose tissue using the white light images, but blinded to the fluorescence images. These ROIs were then analyzed on the co-registered, matched fluorescence images permitting assessment of the mean tissue intensities as well as the nerve to muscle (N/M) and nerve to adipose (N/A) ratios. Fluorescence intensity measurements were divided by the exposure time to obtain normalized intensity per second measurements. Mean nerve to background tissue ratios (N/M and N/A) were calculated for each Oxazine derivative. For nerve imaging at depth image analysis, fluorescent line profiles and 3-D intensity topographical plots were generated in ImageJ using the plot profile and surface plot functions, respectively. The line profiles were background and exposure time corrected by dividing by the exposure time of each image and subtracting the average intensity of background pixels from the entire line profile. […]

nerve and muscle tissue = assay: Ex vivo tissue staining nerve-specificity screening
Source text: Oxazine derivative library nerve-specificity screening. All 64 Oxazine derivatives were screened for nerve specificity using a previously described ex vivo tissue staining assay (Gibbs, S. L., et al., PloS one 8, e73493 (2013)). Ex vivo nerve and muscle tissue fluorescence intensities varied, with many compounds showing minimal nerve or muscle tissue fluorescence above control autofluorescence following Oxazine derivative staining. […] All Oxazine derivatives were further screened for nerve-specificity in vivo using both direct and systemic administration strategies. The direct administration strategy enabled quantification of nerve-specificity and contrast following fluorophore contact with the nerves and surrounding tissues without the requirement of BNB penetration, providing the most similar comparison to ex vivo nerve-specificity screening. The systemic administration screening studies required not only nerve specificity, but also adequate biodistribution and BNB penetration to generate SBR for visualization.

| SMILES | Max Abs [1] | Max Em [1] | Max Ex [1] | Extinction coefficient [1] | Quantum yield [1] | nerve specificity / nerve contrast (N/M vs control group) following systemic administration [2] | N/M and N/A ratios vs unstained control animals [2] | nerve specificity (N/M contrast vs control group) via direct administration [3] | N/M and N/A ratios vs unstained control animals [3] | time post-injection at which signal approached background levels (swine peripheral nerves; swine, IV 0.34 mg/kg) | nerve contrast against key surgical tissue classes (adipose, muscle, vasculature, peritoneal) (swine peripheral nerves; swine) | SBR of buried nerve tissues (swine peripheral nerves; swine) | faster time to positive N/A and N/M fluorescence compared to current visible-emissive agents (swine peripheral nerves; systemic administration) | time post-injection to nerve signal / strong nerve contrast (swine peripheral nerves; systemic administration) | width of smallest nerve branches distinguished under muscle tissue ([4]; direct administration, under 1 mm of muscle tissue) | thickness of muscle tissue under which nerve tissue could be identified ([4]; following both systemic and direct administration, 700 nm channel filters) | ex vivo nerve specificity (N/M SBR vs unstained control group) (nerve and muscle tissue) | time after administration with strong nerve SBR (swine peripheral nerves; swine, IV 0.34 mg/kg) | time required for sufficient background tissue clearance (swine peripheral nerves; swine, IV 0.34 mg/kg) |
| --- | --- | --- | --- | --- | --- | --- | --- | --- | --- | --- | --- | --- | --- | --- | --- | --- | --- | --- | --- |
| CCNc1cc2oc3cc(=[N+](CC)CC)ccc-3nc2cc1C [LGW01-08, N-ethyl-N-(7-(ethylamino)-8-methyl-3H-phenoxazin-3-ylidene)ethanaminium] | 638 nm | 659 nm | 640 nm | 78650 M⁻¹ cm⁻¹ | 5.68% | high nerve specificity | significantly higher N/M and N/A ratios than unstained control animals | high nerve specificity | significantly higher N/M and N/A ratios than unstained control animals | ~4 h | positive nerve contrast | ~1.5 | 2-6 fold | 20 min | ~200 μm | up to 2 mm | – | – | – |
| CN(C)c1ccc2nc3ccc(=[N+](C)C)cc-3oc2c1 [LGW01-39, N-(7-(dimethylamino)-3H-phenoxazin-3-ylidene)-N-methylmethanaminium] | 648 nm | 667 nm | 650 nm | 76144 M⁻¹ cm⁻¹ | 9.56% | – | – | – | – | – | – | – | – | – | – | – | significantly higher N/M SBR compared to the unstained control group | – | – |
| CC/N=c1/cc2oc3cc4c(cc3nc-2cc1C)C(C)=CC(C)(C)N4 [LGW01-44, (Z)—N-(2,2,4,8-tetramethyl-1,2-dihydro-9H-pyrido[3,2-b]phenoxazin-9-ylidene)ethanaminium] | 648 nm | 664 nm | 650 nm | 40124 M⁻¹ cm⁻¹ | 21.63% | negative for nerve contrast | – | positive nerve specificity | – | – | – | – | – | – | – | – | significantly higher N/M SBR compared to the unstained control group | – | – |
| CC/N=c1/cc2oc3cc4c(cc3nc-2cc1C)OCCN4CC [LGW05-75, (Z)—N-(4-ethyl-9-methyl-3,4-dihydro-[1,4]oxazino[2,3-b]phenoxazin-8(2H)-ylidene)ethanaminium] | 638 nm | 659 nm | 640 nm | 57360 M⁻¹ cm⁻¹ | 31.70% | high nerve specificity | significantly higher N/M and N/A ratios than unstained control animals | high nerve specificity | significantly higher N/M and N/A ratios than unstained control animals | – | positive nerve contrast | ~1.5 | – | – | – | – | – | > 4.5 h | ~1.5 h |
